In US12162848B2, “Inhibitors of protein tyrosine phosphatase, compositions, and methods of use” (BRISTOL-MYERS SQUIBB COMPANY, priority 2022, dated 2024) one finds IC50 and EC50 data, which are given here for 23 compounds.

One assay deals with T1, PTPN2 enzyme (Homo sapiens, UniProt P17706).
T1 sequence (P17706 1-415): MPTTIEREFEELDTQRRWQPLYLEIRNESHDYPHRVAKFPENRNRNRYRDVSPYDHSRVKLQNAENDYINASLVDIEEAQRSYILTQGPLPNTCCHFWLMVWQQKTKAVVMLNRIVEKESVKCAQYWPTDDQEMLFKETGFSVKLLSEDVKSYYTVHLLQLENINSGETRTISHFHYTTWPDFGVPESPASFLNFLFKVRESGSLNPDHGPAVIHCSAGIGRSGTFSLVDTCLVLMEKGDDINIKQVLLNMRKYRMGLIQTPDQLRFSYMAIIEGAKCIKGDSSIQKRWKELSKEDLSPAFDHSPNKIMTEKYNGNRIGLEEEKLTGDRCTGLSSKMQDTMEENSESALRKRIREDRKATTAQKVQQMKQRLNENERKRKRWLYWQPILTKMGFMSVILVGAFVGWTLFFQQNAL
As to the kind of experiment: PhosphoSens PTPN2 biochemical assay. Conditions: substrate AQT0264 20 μM, room temperature; read-out: PTPN2 BCHEM IC50. The method, boiled down: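 PhosphoSens fluorescence format with 20 μM final AQT0264 substrate and […] in 50 mM HEPES pH 7.5, 500 μM EGTA, […], 0.01% Brij-35, 1% glycerol, 1 mM DTT, 0.2 mg/mL BSA. Compounds in 3-fold dilution series; progress curves read (ex 360/em 480 nm) every 71 s for 1 h at room temperature.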

Another assay has as its system B16-F10 cells. As to the kind of experiment: Cell proliferation assay (CellTiter-Glo) in IFN-gamma treated B16-F10 cells. Type of assay: cell-based. The note with it: 120 h, mouse IFN-gamma 10 ng/mL, read-out: PTPN2 Prolif 5d B16F10 EC50.
The test system of assay [1] is phosphorylated STAT1 protein levels in B16-F10 cells. Description: Phospho-STAT1 (Tyr701) HTRF assay in IFN-gamma treated B16-F10 cells. Type of assay: cell-based. The note with it: mouse IFN-gamma 100 ng/mL, 1 hour, read-out: pSTAT1 HTRF B16 EC50. The method in brief: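 Mouse B16-F10 cells, 10,000/well, pretreated 1 h with compound (0.15% DMSO), then stimulated with mouse IFN-gamma at 100 ng/mL final for 1 h at 37 C. Phospho-STAT1 (Tyr701) measured by HTRF.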

Consider `CN(C)C1CCN(Cc2cc(O)c(N3CC(=O)NS3(=O)=O)c(F)c2)CC1` [EXAMPLE 33, 5-(4-((4-(dimethylamino)piperidin-1-yl)methyl)-2-fluoro-6-hydroxyphenyl)-1,2,5-thiadiazolidin-3-one 1,1-dioxide], for which the concentration for half-maximal inhibition (IC50) at PTPN2 enzyme came to 94 nM. Moreover, the EC50 (with B16-F10 cells; in assay [1]) was ≥ 15000 nM throughout.
On to `O=C1CN(c2c(O)cc(CNC3CCCCC3)cc2F)S(=O)(=O)N1` [EXAMPLE 34, 5-[4-[(cyclohexylamino)methyl]-2-fluoro-6-hydroxy-phenyl]-1,1-dioxo-1,2,5-thiadiazolidin-3-one], for which the IC50 on PTPN2 enzyme was 90 nM. Besides, the values for the EC50 (with B16-F10 cells; in assay [1]) were 1720 nM and 1740 nM, respectively.
In the same order, the values of `O=C1CN(c2c(O)cc(CNC3CCOCC3)cc2F)S(=O)(=O)N1` [EXAMPLE 35, 5-[2-fluoro-6-hydroxy-4-[(tetrahydropyran-4-ylamino)methyl]phenyl]-1,1-dioxo-1,2,5-thiadiazolidin-3-one] are 1560 nM, ≥ 15000 nM and ≥ 15000 nM.
Regarding `CC(C)CC(=O)N1CCN(Cc2cc(O)c(N3CC(=O)NS3(=O)=O)c(F)c2)CC1` [EXAMPLE 36, 5-(2-fluoro-6-hydroxy-4-((4-(3-methylbutanoyl)piperazin-1-yl)methyl)phenyl)-1,2,5-thiadiazolidin-3-one 1,1-dioxide], on PTPN2 enzyme, the IC50 worked out at 79 nM. Besides, the EC50 (in the assay with B16-F10 cells; in assay [1]) was ≥ 15000 nM in each case.
As to `CC1(C)CCC(NCc2cc(O)c(N3CC(=O)NS3(=O)=O)c(F)c2)CC1` [EXAMPLE 37, 5-(4-(((4,4-dimethylcyclohexyl)amino)methyl)-2-fluoro-6-hydroxyphenyl)-1,2,5-thiadiazolidin-3-one 1,1-dioxide], at PTPN2 enzyme, the half-inhibitory concentration (IC50) came to 35 nM. Further, the EC50 came out at 812 nM in the assay with B16-F10 cells and 1340 nM in assay [1].
Turning to `O=C1CN(c2c(O)cc(CNC3CCNCC3)cc2F)S(=O)(=O)N1` [EXAMPLE 39, 5-(2-fluoro-6-hydroxy-4-((piperidin-4-ylamino)methyl)phenyl)-1,2,5-thiadiazolidin-3-one 1,1-dioxide], the half-maximal inhibitory concentration (IC50) at PTPN2 enzyme turned out to be 86 nM. Besides, the half-maximal effective concentration (EC50) (in the assay on B16-F10 cells; in assay [1]) was ≥ 15000 nM each time.
In the case of `CCN1CCC(NCc2cc(O)c(N3CC(=O)NS3(=O)=O)c(F)c2)CC1` [EXAMPLE 40, 5-(4-(((1-ethylpiperidin-4-yl)amino)methyl)-2-fluoro-6-hydroxyphenyl)-1,2,5-thiadiazolidin-3-one 1,1-dioxide], the half-maximal inhibitory concentration (IC50) on PTPN2 enzyme was 131 nM. Moreover, the results for the 50% effective concentration (EC50) (in the assay on B16-F10 cells; in assay [1]) were 3260 nM and 2340 nM, respectively.
Regarding `O=C1CN(c2c(O)cc(CN3CCOCC3)cc2F)S(=O)(=O)N1` [EXAMPLE 41, 5-(2-fluoro-6-hydroxy-4-(morpholinomethyl)phenyl)-1,2,5-thiadiazolidin-3-one 1,1-dioxide], the IC50 on PTPN2 enzyme was determined as 70 nM. Also, the EC50 was 3560 nM in the assay on B16-F10 cells and 3380 nM in assay [1].
For `O=C1CN(c2c(O)cc(CN3CCC(F)CC3)cc2F)S(=O)(=O)N1` [EXAMPLE 42, 5-(2-fluoro-4-((4-fluoropiperidin-1-yl)methyl)-6-hydroxyphenyl)-1,2,5-thiadiazolidin-3-one 1,1-dioxide], on PTPN2 enzyme, the IC50 worked out at 60 nM. Moreover, the figures for the 50% effective concentration (EC50) (in the assay on B16-F10 cells; in assay [1]) were 4720 nM and 2570 nM, respectively.
For `CN(Cc1cc(O)c(N2CC(=O)NS2(=O)=O)c(F)c1)C1CCCCC1` [EXAMPLE 43, 5-(4-((cyclohexyl(methyl)amino)methyl)-2-fluoro-6-hydroxyphenyl)-1,2,5-thiadiazolidin-3-one 1,1-dioxide], on PTPN2 enzyme, the half-maximal inhibitory concentration (IC50) is 239 nM. For the same compound, the 50% effective concentration (EC50) is 4350 nM in the assay on B16-F10 cells and 4270 nM in assay [1].
As for `COCCN1CCN(Cc2cc(O)c(N3CC(=O)NS3(=O)=O)c(F)c2)CC1` [EXAMPLE 44, 5-(2-fluoro-6-hydroxy-4-((4-(2-methoxyethyl)piperazin-1-yl)methyl)phenyl)-1,2,5-thiadiazolidin-3-one 1,1-dioxide], on PTPN2 enzyme, the IC50 worked out at 131 nM. The EC50 (in the assay with B16-F10 cells; in assay [1]) was ≥ 15000 nM each time.
Take `CC1(C)CCC[C@@H](NCc2cc(O)c(N3CC(=O)NS3(=O)=O)c(F)c2)C1` [EXAMPLE 51, 5-[4-[[[(1R)-3,3-dimethylcyclohexyl]amino]methyl]-2-fluoro-6-hydroxy-phenyl]-1,1-dioxo-1,2,5-thiadiazolidin-3-one]: the IC50 at PTPN2 enzyme is 35 nM. Further, the results for the EC50 (in the assay with B16-F10 cells; in assay [1]) were 656 nM and 1150 nM, respectively.
In the case of `O=C1CN(c2c(O)cc(CN3CCC(O)CC3)cc2F)S(=O)(=O)N1` [EXAMPLE 52, 5-[2-fluoro-6-hydroxy-4-[(4-hydroxy-1-piperidyl)methyl]phenyl]-1,1-dioxo-1,2,5-thiadiazolidin-3-one], on PTPN2 enzyme, the concentration for half-maximal inhibition (IC50) was 114 nM. Moreover, the EC50 is 6940 nM in the assay with B16-F10 cells and 4610 nM in assay [1].
`COC1CCN(Cc2cc(O)c(N3CC(=O)NS3(=O)=O)c(F)c2)CC1` [EXAMPLE 53, 5-[2-fluoro-6-hydroxy-4-[(4-methoxy-1-piperidyl)methyl]phenyl]-1,1-dioxo-1,2,5-thiadiazolidin-3-one]: the IC50 on PTPN2 enzyme worked out at 102 nM. In addition, the EC50 in the assay on B16-F10 cells amounted to 2980 nM; in assay [1] it was 3200 nM.
`CN(C)CC1CCN(Cc2cc(O)c(N3CC(=O)NS3(=O)=O)c(F)c2)CC1` [EXAMPLE 56, 5-[4-[[4-[(dimethylamino)methyl]-1-piperidyl]methyl]-2-fluoro-6-hydroxy-phenyl]-1,1-dioxo-1,2,5-thiadiazolidin-3-one]: the 50% inhibitory concentration (IC50) on PTPN2 enzyme turned out to be 226 nM. Further, the 50% effective concentration (EC50) (with B16-F10 cells; in assay [1]) was ≥ 15000 nM throughout.
In the case of `CNC(=O)[C@H]1CC[C@H](NCc2cc(O)c(N3CC(=O)NS3(=O)=O)c(F)c2)CC1` [EXAMPLE 58, (1r,4r)-4-((4-(1,1-dioxido-4-oxo-1,2,5-thiadiazolidin-2-yl)-3-fluoro-5-hydroxybenzyl)amino)-N-methylcyclohexane-1-carboxamide], at PTPN2 enzyme, the IC50 came out at 376 nM. The EC50 is ≥ 15000 nM in the assay with B16-F10 cells and 5080 nM in assay [1].
Regarding `CNC(=O)CN1CCN(Cc2cc(O)c(N3CC(=O)NS3(=O)=O)c(F)c2)CC1` [EXAMPLE 59, 2-(4-(4-(1,1-dioxido-4-oxo-1,2,5-thiadiazolidin-2-yl)-3-fluoro-5-hydroxybenzyl)piperazin-1-yl)-N-methylacetamide], the IC50 at PTPN2 enzyme came to 477 nM. For the same compound, the EC50 (with B16-F10 cells; in assay [1]) was ≥ 15000 nM throughout.
As to `CC(=O)N[C@H]1CC[C@H](NCc2cc(O)c(N3CC(=O)NS3(=O)=O)c(F)c2)CC1` [EXAMPLE 60, N-((1r,4r)-4-((4-(1,1-dioxido-4-oxo-1,2,5-thiadiazolidin-2-yl)-3-fluoro-5-hydroxybenzyl)amino)cyclohexyl)acetamide], the concentration for half-maximal inhibition (IC50) at PTPN2 enzyme came out at 410 nM. In addition, the EC50 (in the assay with B16-F10 cells; in assay [1]) was ≥ 15000 nM each time.
Take `O=C1CN(c2c(O)cc(CN[C@@H]3CCCNC3)cc2F)S(=O)(=O)N1` [EXAMPLE 61, (R)-5-(2-fluoro-6-hydroxy-4-((piperidin-3-ylamino)methyl)phenyl)-1,2,5-thiadiazolidin-3-one 1,1-dioxide]: on PTPN2 enzyme, the IC50 turned out to be 121 nM. Further, the 50% effective concentration (EC50) in the assay with B16-F10 cells is 2560 nM; in assay [1], 4980 nM.
Consider `CC(C)CCN1CCC[C@@H](NCc2cc(O)c(N3CC(=O)NS3(=O)=O)c(F)c2)C1` [EXAMPLE 62, (R)-5-(2-fluoro-6-hydroxy-4-(((1-isopentylpiperidin-3-yl)amino)methyl)phenyl)-1,2,5-thiadiazolidin-3-one 1,1-dioxide], for which, on PTPN2 enzyme, the IC50 was 88 nM. Also, the EC50 with B16-F10 cells is 14600 nM; in assay [1], ≥ 15000 nM.
The matching figures for `CC(C)CCN1CCC[C@H](NCc2cc(O)c(N3CC(=O)NS3(=O)=O)c(F)c2)C1` [EXAMPLE 63, 5-[2-fluoro-6-hydroxy-4-[[[(3S)-1-isopentyl-3-piperidyl]amino]methyl]phenyl]-1,1-dioxo-1,2,5-thiadiazolidin-3-one]: 153 nM, ≥ 15000 nM and ≥ 15000 nM.
Take `O=C1CN(c2c(O)cc(CN[C@@H]3CCCOC3)cc2F)S(=O)(=O)N1` [EXAMPLE 64, (R)-5-(2-fluoro-6-hydroxy-4-(((tetrahydro-2H-pyran-3-yl)amino)methyl)phenyl)-1,2,5-thiadiazolidin-3-one 1,1-dioxide]: on PTPN2 enzyme, the concentration for half-maximal inhibition (IC50) was found to be 139 nM. The EC50 with B16-F10 cells was 2720 nM; in assay [1], 2180 nM.
In the same order, the values of `O=C1CN(c2c(O)cc(CN[C@H]3CCCNC3)cc2F)S(=O)(=O)N1` [EXAMPLE 65, (S)-5-(2-fluoro-6-hydroxy-4-((piperidin-3-ylamino)methyl)phenyl)-1,2,5-thiadiazolidin-3-one 1,1-dioxide] are 130 nM, 6860 nM and 5200 nM.

Broadly, the IC50 is the concentration at which inhibition is half-maximal. By EC50 is commonly meant the concentration that produces a half-maximal response.
